# Laboratory results: patent US20080125498A1, “TREATMENT OF NEURODEGENERATIVE DISEASES AND CONDITIONS USING PAR1 ANTAGONISTS” (priority 2001, published 2008)
# Ends that are not written are not given here.
# Assays:
# PAR1 [1] = assay: PI hydrolysis in hippocampal slices; type: cell-based, mouse; conditions: wild type hippocampus / hippocampal slices
# From the text: PAR1 is a seven transmembrane G-protein coupled receptor that stimulates G-alpha-q to initiate phosphatidyl inositol (PI) hydrolysis. To ensure that PAR1 is functional in regions of the brain that are subject to ischemic damage in the mouse transient focal ischemia model, we tested the ability of several activators of PAR1 to initiate PI hydrolysis (Chung et al., 1997) in the hippocampus and striatum.
# Since tPA activates plasminogen to form plasmin, we tested whether exogenously applied tPA could activate endogenous plasminogen in brain slices to form plasmin and activate PAR1.
# cortical astrocytes = assay: Astrocyte proliferation by BrdU incorporation; type: cell-based, mouse; conditions: for number of BrdU-positive cells: astrocyte cultures from wild type mice, 3 or 30 micromolar, 24 hours
# Method: Cortical astrocytes from wild type and PAR1−/− knockout mice were either untreated (control) or treated for 24 hours with a 3 or 30 micromolar concentration of the peptide TFLLR-NH2 (SEQ ID NO: 1), which selectively activates PAR1. Cells were pulse-labeled with BrdU for the final 2 hours of culture.
# PAR1 [2] = assay: Free intracellular calcium in cultured astrocytes (Fluo-3 AM); type: cell-based, mouse
# NMDA receptor [3] = assay: Whole cell patch recording of NMDA-evoked currents in hippocampal slice CA1 pyramidal neurons; type: cell-based, rat; conditions: for average peak potentiation by thrombin: 1.4 mM Mg2+, n=19
# NR1 subunit [4] = assay: NMDA receptor subunit immunoblots of thrombin-treated brain membranes; type: biochemical, rat
# Method: (§1) NMDA receptor subunit immunoblots. Human embryonic kidney (HEK) cells were maintained in DMEM supplemented with 0.5 mM glutamine, 1 mM pyruvate, penicillin, streptomycin, and 10% fetal bovine serum in a humidified environment with 5% CO2, and transfected with 1 microgram/ml of NR1 or 1:2 microgram/ml NR1:NR2 cDNA. Cells were washed in ice-cold HEPES buffered saline (HBS), scraped on ice, and membranes isolated by centrifugation at 12,000×g. […] Adult rat brain regions were dissected, frozen in liquid nitrogen, homogenized in ice-cold HEPES buffered saline (HBS), centrifuged, and stored at −20° C. Membranes were resuspended in HBS and treated with thrombin or buffer for 30 min at 37° C. Samples were centrifuged, and the membrane pellet resuspended in 2% sodium dodecylsulphate (SDS), 62.5 mM Tris, 10% glycerol, 5% beta-mercaptoethanol, 0.05% bromophenol blue (pH 6.8); some samples were treated with IOU DNase for 10 min at 37° C. SDS/polyacrylamide gel electrophoresis (SDS/PAGE) and protein blotting to Immobilon-P membranes was performed as described (Lau and Huganir, Differential tyrosine phosphorylation of N-methyl-D-aspartate receptor subunits. J Biol Chem 270: 20036-20041, 1995). Membranes were blocked for 30 min in 0.2 M Tris base, 1.37 M NaCl, pH 7.4, containing 5% nonfat dry milk, and incubated overnight at 4° C. in primary antibodies: NR1 mAb54.1 (gift from Dr. S. Heinemann, Salk Institute, La Jolla Calif.), NR1 alt-C-terminal (Upstate Biotechnology, Lake Placid, N.Y.), NR2A C-terminal (Chemicon, Temecula, Calif.), or NR2B C-terminal (Upstate Biotechnology). Membranes were washed 3×, and incubated with HRP-conjugated goat anti-mouse or goat anti-rabbit antibodies (1:10,000), washed 3×, and developed using enhanced chemiluminescence. The percent of receptor cleaved by thrombin was determined using densitometry.
# NMDA receptor [5] = assay: Whole cell patch recording of NMDA-evoked currents in hippocampal CA1 pyramidal cells of wild-type and PAR1-/- mice; type: cell-based, mouse
# hippocampal slices = assay: Transmitted light measurements in hippocampal slices (extracellular volume fraction); type: cell-based, rat; conditions: 3-7 U/ml thrombin, 10-20 minutes
# Method: Rat hippocampal slices were prepared as described above, and were bathed in a submerged chamber with 0.5 micromolar TTX, and 3-7 U/ml thrombin in 0.5 micromolar TTX applied for 10-20 minutes. The intensity of transmitted light (450-490 nm) through hippocampal slices was monitored as an indication of extracellular volume fraction (Andrew and MacVicar, Imaging cell volume changes and neuronal excitation in the hippocampal slice. Neuroscience 62: 371-383, 1994). Images were recorded using a Princeton Micromax CCD camera (Trenton, N.J.; 0.2 sec exposure every 20 to 40 sec) and analyzed using Axon Imaging Workbench 2.1 software (Foster City, Calif.). Intensity was expressed as I/Io where Io is the intensity of transmitted light prior to treatment. Solutions were made hyperosmotic by addition of 30 mM mannitol, which can produce a 10% expansion of the extracellular volume fraction (McBain et al. Regional variation of extracellular space in hippocampus. Science 249: 674-677, 1990). Hypoosmotic solutions were obtained by addition of 10% v/v water.
# NMDA receptor [6] = assay: Two electrode voltage clamp of recombinant NMDA receptors with or without PAR1 in Xenopus oocytes; type: cell-based, Xenopus laevis
# Method: Expression and recording of NMDA and PAR1 receptor function in Xenopus laevis oocvtes. cRNA was synthesized from linearized template cDNA according to manufacturer specifications (Ambion, Austin, Tex.). Xenopus oocytes were removed from ovaries of female frogs anesthetized with 0.3% 3-aminobenzoic acid ethylester. Groups of 20-30 stage V-VI oocytes were incubated in 292 U/ml Worthington (Freehold, N.J.) Type IV collagenase for 2 hours with slow shaking. The oocytes were rinsed in Barth's solution, and stored at 17° C. in Barth's solution supplemented with 100 microgram/ml gentamycin and 40 microgram/ml streptomycin. Control oocytes were injected with 3 ng NR1 subunit and 7 ng NR2B subunit. Other oocytes were injected with the NMDA receptor subunits plus 3 ng PAR1 cRNA. Two electrode voltage clamp recordings were made 3-7 days post-injection. Oocytes were continually perfused with recording solution (in mM, 90 NaCl, 1 KCl, 10 HEPES, pH 7.4) and held under voltage clamp at −30 to −50 mV with an OC-725B amplifier (Warner Instruments, Hamden, Conn.). Recording solution was supplemented with 1.0 mM CaCl2 during initial impalement of the oocytes and subsequently 0.5 mM BaCl2 during recording to reduce the calcium-activated chloride current endogenous to oocytes. […] NMDA receptor currents were evoked by 20 micromolar glutamate/10 micromolar glycine perfused for 0.5-1 minute. […] Expression of PAR1 protein was verified by a thrombin or SFLLRN-stimulated rapidly desensitizing inward current at −30 mV that reflects the Ca^2+-activated Cl^− current endogenous to the oocyte. To test the ability of thrombin to modify NMDA receptor function in oocytes, recordings of receptor function were made both before and after a 15-60 min incubation in recording solution supplemented with thrombin in Eppendorf tubes at room temperature. […] Oocytes with responses less than 50 nA were not included in the analysis.
# PAR1 [7] = type: cell-based, rat
# NR1 subunit [8] = biological target: T1, NR1 subunit (Rattus norvegicus, UniProt P35439); assay: Thrombin cleavage of recombinant NR1 subunits in HEK 293 cells (immunoblot); type: biochemical; conditions: 10-1000 U/ml thrombin
# T1 construct: expressed in transfected cells; host or cells: HEK 293 cells, transient transfection; isolated membranes treated with thrombin
# Method: as §1, with “Membranes were blocked for 30 min in 0.2 M Tris base, 1.37 M NaCl, pH 7.4, containing 5% nonfat dry milk, and incubated overnight at 4° C. in primary antibodies: NR1 mAb54.1 (gift from Dr. S. Heinemann, Salk Institute, La Jolla Calif.), NR1 alt-C-terminal (Upstate Biotechnology, Lake Placid, N.Y.), NR2A C-terminal (Chemicon, Temecula, Calif.), or NR2B C-terminal (Upstate Biotechnology). Membranes were washed 3×, and incubated with HRP-conjugated goat anti-mouse or goat anti-rabbit antibodies (1:10,000), washed 3×, and developed using enhanced chemiluminescence.” left out
# NR1 subunit [9] = assay: NMDA receptor subunit immunoblots of thrombin-treated brain membranes; type: biochemical, rat; remark: listed apart in the source
substance,measurement,setting,value
TFLLR-NH2 [specific PAR1 agonist peptide],PI hydrolysis,PAR1 [1],increased PI hydrolysis
same,number of BrdU-positive cells,cortical astrocytes,increases the number of BrdU-positive cells
same,number of BrdU-positive cells,cortical astrocytes; listed as TFLLR,can stimulate astrocyte proliferation
same,free intracellular calcium,PAR1 [2]; cultured astrocytes from PAR1-/- knockout mice,does not increase free intracellular calcium
same,free intracellular calcium,PAR1 [2]; cultured astrocytes from wild type mice,increases free intracellular calcium
bisindolylmaleimide [reference compound],potentiation of NMDA receptor currents by thrombin in presence of BIS,"NMDA receptor [3]; BIS 10 microM in ACSF, 30 nM (3 U/ml) thrombin, n=10",1.20±0.13 fold
same,NMDA responses during preapplication of BIS,NMDA receptor [3]; BIS alone,unchanged
hirudin [reference compound],potentiation by thrombin of NMDA responses in presence of hirudin,"NMDA receptor [3]; 3 U/ml thrombin + 100 ATU hirudin, average potentiation 12-19 min post treatment, n=5",0.96±0.23 fold
same,block of NR1 cleavage by 30 nM thrombin,"NR1 subunit [4]; striatal membranes, 100 ATU hirudin",blocked cleavage
pertussis toxin,inhibition of PAR1-induced astrocyte proliferation,"cortical astrocytes; 24-hour pre-treatment, counting of BrdU-positive cells",could be inhibited
thrombin,PI hydrolysis,PAR1 [1],increased PI hydrolysis
same,peak potentiation of NMDA responses,"NMDA receptor [3]; 30 nM (3 U/ml) thrombin, -70 mV, within 20 minutes, n=21",2.07±0.27 fold
same,average peak potentiation by thrombin,NMDA receptor [3]; -40 mV,1.48±0.11 fold
same,average peak potentiation by thrombin,NMDA receptor [3]; -70 mV,2.10±0.29 fold
same,thrombin potentiation of the NMDA response,"NMDA receptor [3]; cells excluded for low input resistance or increased series resistance, n=12",1.8±0.2 fold
same,thrombin-induced potentiation,"NMDA receptor [3]; cells held at 0 mV, briefly stepped to -70 mV, n=7",2.7±0.7 fold
same,NMDA receptor responses,"NMDA receptor [5]; PAR1-/- C57B1/6 mice, thrombin application",did not significantly increase
same,potentiation of responses to pressure-applied NMDA plus glycine,"NMDA receptor [5]; wild-type C57B1/6 mice, 3 U/ml thrombin",robust potentiation
same,intensity of transmitted light I/Io,hippocampal slices; stratum pyramidale,1.00±0.01
same,intensity of transmitted light I/Io,hippocampal slices; stratum radiatum,1.01±0.01
same,NR1 subunits cleaved,"NR1 subunit [4]; 1-3 micromolar thrombin, all brain regions except striatum",100%
same,molecular weight shift of NR2A or NR2B subunits,"NR1 subunit [4]; brain membranes, 3-300 U/ml thrombin",did not induce any observable molecular weight shift
same,cleavage of NR1 subunits,"NR1 subunit [4]; cerebellar, cortical and brainstem membranes, 300 nM thrombin (30 U/ml)",insensitive to cleavage
same,NR1 cleaved,"NR1 subunit [4]; striatal membranes, 30 nM thrombin (3 U/ml)",50%
same,maximal observed cleavage of NR1,"NR1 subunit [4]; striatum, 1-3 micromolar thrombin",52%
same,potentiation of NR1-1a/NR2A receptors coexpressed with PAR1,"NMDA receptor [6]; 3 nM thrombin, n=6",1.68±0.11 fold
same,potentiation of NR1-1a/NR2A receptors coexpressed with PAR1,"NMDA receptor [6]; 300 μM thrombin (so in the source), n=7",1.37±0.08 fold
same,current response amplitude after incubation,"NMDA receptor [6]; 300-1000 nM thrombin, 60 minutes, n=7, buffer controls 78±5%",42±9%
same,ratio of NMDA receptor-mediated current after to before application,"NMDA receptor [6]; NR1-1a/NR2B, oocytes without PAR1, n=9",0.87±0.04
same,PAR1 potentiation of NR1-1a(C798A)/NR2B receptors,"NMDA receptor [6]; control oocytes lacking PAR1, n=5",0.98±0.05
same,cleavage of NR1 subunit,NMDA receptor [6]; low concentrations of thrombin (0.3-3 nM),did not produce any cleavage
same,response amplitude of NR1/NR2A and NR1/NR2B receptors vs buffer,"NMDA receptor [6]; oocytes lacking thrombin receptors, 3 U/ml, 15 minutes, 23 C",no significant difference
same,PAR1 potentiation of NR1-1a(C798A)/NR2B receptors,"NMDA receptor [6]; oocytes with PAR1, n=7",1.35±0.07
same,potentiation of NR2A containing receptors,"NMDA receptor [6]; presence of 10 micromolar EDTA, n=12",2.01±0.17 fold
same,"amplitude of NMDA receptor responses, NR1-1a with NR2c or NR2D",NMDA receptor [6]; thrombin activation of PAR1,unaffected
same,Fluo-3 fluorescence in soma and dendrites,PAR1 [7],robust increase
same,cleavage of recombinant NR1-1b and NR1-1b/NR2B receptors,NR1 subunit [8],cleaved both homomeric NR1-1b receptors
same,predicted cleavage of NR1 protein,"NR1 subunit [9]; 15 minute treatment of slices at 23 C, 3 U/ml, extrapolated assuming linear time, Q10 2.5",1%
same,NR1 cleavage product in CA1 region microdissected from slices,NR1 subunit [9]; 15 minutes of 3 U/ml thrombin application at 23 C,no NR1 cleavage product was observed
same,NR1 subunit cleaved,"NR1 subunit [9]; hippocampal membranes, 30 nM thrombin (3 U/ml), 1 hour at 37 C",20%
